Test results: PubChem BioAssay (NCI)
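Step 1: Grow cells in 96-well plates. Step 2: Expose to compound for 48 hours at 5 concentrations. Step 3: Interpolate endpoints linearly; if unreached, use highest concentration. GI50 marks 50% less growth. TGI denotes the concentration required for complete inhibition of growth.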

Tests used:
Test in all cases: NCI anticancer screen, dose series, 48 h
SF-268 CNS = tested on: SF-268 CNS
SF-539 CNS = tested on: SF-539 CNS
UO-31 renal = tested on: UO-31 renal
OVCAR-5 ovarian = tested on: OVCAR-5 ovarian
UACC-257 melanoma = tested on: UACC-257 melanoma
ACHN renal = tested on: ACHN renal
SK-MEL-5 melanoma = tested on: SK-MEL-5 melanoma
U251 CNS = tested on: U251 CNS
SK-MEL-28 melanoma = tested on: SK-MEL-28 melanoma
NCI-H23 lung = tested on: NCI-H23 lung

Compound	GI50 (SF-268 CNS) [µM]	TGI (SF-268 CNS) [µM]	GI50 (SF-539 CNS) [µM]	TGI (SF-539 CNS) [µM]	GI50 (UO-31 renal) [µM]	TGI (UO-31 renal) [µM]	GI50 (OVCAR-5 ovarian) [µM]	TGI (OVCAR-5 ovarian) [µM]	GI50 (UACC-257 melanoma) [µM]	TGI (UACC-257 melanoma) [µM]	GI50 (ACHN renal) [µM]	TGI (ACHN renal) [µM]	GI50 (SK-MEL-5 melanoma) [µM]	TGI (SK-MEL-5 melanoma) [µM]	GI50 (U251 CNS) [µM]	TGI (U251 CNS) [µM]	GI50 (SK-MEL-28 melanoma) [µM]	TGI (SK-MEL-28 melanoma) [µM]	GI50 (NCI-H23 lung) [µM]	TGI (NCI-H23 lung) [µM]
CCCCCn1c(=N)n(CC(O)COc2cccc(C)c2)c2ccccc21 (stereo not given)	10.7	23.9	11.7	24.7	4.03	17.6	9.82	25.2	3.36	12	8.85	23.8	2.75	7.82	2.11	4.25	3.95	14.7	6.87	22.5
C1CCSCCCCSCCCCSCCCCSC1		> 100		> 100		> 100		> 100		> 100		> 100		> 100		> 100		> 100		> 100
CCOC(=O)C1=C(C)N(Cc2ccccc2)C(C)=C(C(=O)OCC)C1c1ccccc1O		> 100		88.8		> 100		> 100		70.7		> 100		30.3		> 100		> 100		57.7
COc1ccc(N2C(C)=C(C#N)C34C(=O)N(c5ccccc5)C(=O)C3=C(O)C=CC24O)cc1 (stereo not given)	16.6	80.2	6.82	25.3	13.9	55.8	18.1	73.8	30.1	> 100	18.2	45.6	11.4	28.2	13	25.7	12	30.1	8.86	58
CC(C)(C)OC(=O)C#CC[C@H]1CCCC1/C=C/C(O)=C1/C(=O)NC(CCCNC(=O)OC(C)(C)C)C1=O (stereo not given in full)		75.3		83.1		> 100		> 100		61.4		> 100		> 100		74.8		36.1		78.3
CN1CCN(CCc2cccc(C(=O)c3cnn(-c4ccc(F)cc4)c3N)c2)CC1	> 25	> 25	> 25	> 25	> 25	> 25	> 25	> 25	> 25	> 25	> 25	> 25	> 25	> 25	> 25	> 25	> 25	> 25	> 25	> 25
CC(C)C(=O)Nc1nc2nc[nH]c2c(=O)[nH]1		> 100		> 100		> 100		> 100		> 100		> 100		> 100		> 100		> 100		> 100
CCN(Cc1ccc(F)c(F)c1)c1ccc(CO)c(Cl)c1	15	32.4	13.7	27.3	2.7	19.2	0.0592	0.306	0.138	0.432	9.77	22.8	5.85	20.3	0.867	15.1	12.4	25.1	6.7	27.1
O=CNc1c(Cl)cc2c(c1Cl)Cc1cc([N+](=O)[O-])ccc1-2	6.63	> 100	6.15	> 100	1.81	29.3	16.6	> 100	64	> 100	7.83	> 100	1.11	> 100	5.87	> 76.3	20.2	> 100	5.56	> 66.8
Cc1ccc(S(=O)(=O)N2CCSCCSCCSCCSCC2)cc1		> 75.8		43.7		> 81.3		> 100		> 100		> 100		> 86.9		35.3		> 100		> 92.6
CN(CCCN)CCCNc1nc2ccccc2c2[nH]c3ccccc3c12	0.241	1.07	0.324	0.943	0.337	1.34	0.18	0.652	1.77	3.49	0.409	4.45	0.747	1.98	0.159	1.07	0.342	1.17	0.201	0.57
COc1c(CCC[P+](c2ccccc2)(c2ccccc2)c2ccccc2)cc2c(c1OC)OCO2	2.04	13.1	2.1	13.7	11.9	47.2	2.74	81.2	0.312	4.38	5.34	29.5	1.33	2.81	1.77	19.7	0.769	14.8	2.19	10.3
Cc1ccc(C(=O)O/N=C2/CCC/C2=C\c2ccccc2)cc1		> 100		> 100		> 100		> 100		> 100		> 100		> 100		> 100		> 100		> 100
COC(=O)/C=C/C=C(c1ccccc1)c1ccccc1	4.63	> 100	5.17	43.3	3.27	37.8	14	> 100	8.82	> 100	5.56	> 100	3.43	13.8	3.6	29.3	7.84	> 100	16.3	> 100
O=C([O-])c1ccccc1Nc1ccccn1.O=C([O-])c1ccccc1Nc1ccccn1.[Ni+2]	75.7	> 100	72.4	> 100	48.9	> 100	75.6	> 100	> 100	> 100	> 100	> 100	73.9	> 100	> 100	> 100	58.9	> 100	> 100	> 100
O=C(CC(=O)CC(O)(C(F)(F)F)C(F)(F)F)CC(O)(C(F)(F)F)C(F)(F)F		> 10		> 10		> 10		> 10		> 10		> 10		> 10		> 10		> 10		> 10
COc1ccccc1NC(=O)C1=C(C)NC(C)=C(C(=O)Nc2ccccc2OC)C1c1ccccc1F		> 100		> 100		> 100		> 100		> 100		> 100		> 100		> 100		> 100		> 100
CN(C(=O)C12C3C4C5C3C1(C(=O)O)C5C42)C(C)(C)C (stereo not given)		> 100		> 100		> 100		> 100		> 100		> 100		> 100		> 100		> 100		> 100
C=C1C(=O)O[C@H]2[C@H]1CC/C(COC(=O)NCc1ccccc1OC)=C\CC[C@@]1(C)O[C@@H]21	2.2	6.74	1.53	3.04	1.68	3.18	2.29	5.44	1.48	3.51	1.27	2.85	2.86	8.03	2.2	6.85	1.52	3.61	1.74	4.11
